In PMC3969223, “Characterization of WZ4003 and HTH-01-015 as selective inhibitors of the LKB1-tumour-suppressor-activated NUAK kinases” (Biochemical Journal, 2013):

Key:
[1] = tested on: ACC Ser79 phosphorylation; experiment: ACC Ser79 phosphorylation on EDTA-induced detachment, HEK-293; type: cell-based, human; details: HEK-293, 16 h
Method: (§1) HEK (human embryonic kidney)-293 and U2OS cells were cultured in DMEM (Dulbecco's modified Eagle's medium) supplemented with 10% FBS, 2 mM glutamine and 1×antibacterial/antimycotic solution. NUAK1^+/+ and NUAK1^−/− MEFs were cultured in DMEM supplemented with 10% (v/v) FBS and 2 mM glutamine, 1×antibacterial/antimycotic solution, 1% (v/v) non-essential amino acids and 1% (v/v) sodium pyruvate. HEK-293 Flp/In T-Rex cell lines were cultured in DMEM supplemented with 10% (v/v) FBS and 2 mM glutamine, 1×antibacterial/antimycotic solution, 100 μg/ml hygromycin and 15 μg/ml blasticidin. Supplementing the culture medium with 0.1 μg/ml doxycycline for 16–24 h induced protein expression in the HEK-293 Flp/In T-Rex cells. Cell counting was carried out using Invitrogen Countess following the manufacturer's protocol. A cell-detachment assay was carried out on HEK-293 cells using PBS-EDTA-based cell dissociation buffer as described previously. An inhibitor dose-dependence assay was carried out by treating the cells with various concentrations of the inhibitors as indicated in the Figure legends. The inhibitors were dissolved in DMSO and the total concentration of DMSO in the culture media never exceeded 1%. Transient transfections of HEK-293 cells were carried out using PEI [24]. Stable transfections were carried out in HEK-293 Flp/In T-Rex cells (Invitrogen) following the manufacturer's protocol. […]

[2] = tested on: MYPT1 Ser445 phosphorylation; experiment: MYPT1 Ser445 phosphorylation, HEK-293 Flp/In T-Rex overexpressing HA-NUAK1[A195T]; type: cell-based, human; details: cells expressing drug-resistant NUAK1[A195T]; 30 μM
Method: as §1

U2OS cells = experiment: 3D Matrigel Transwell invasion assay; type: cell-based; details: 10 μM, 16 h, 10% FBS chemoattractant
Method: The ability of U2OS cells to invade in the presence or absence of 10 μM HTH-01-015 or WZ4003 was tested in a growth-factor-reduced Matrigel™ invasion chamber (BD Biosciences, catalogue number 354483) as described previously. Cells were serum-deprived for 2 h, detached using cell-dissociation buffer (Gibco), and 2.5×10^5 cells suspended in DMEM containing 1% (w/v) BSA were added to the upper chambers in triplicate and chemoattractant [DMEM containing 10% (v/v) FBS] was added to the lower wells. The chambers were kept at 37°C in 5% CO2 for 16 h in the presence or absence of 10 μM HTH-01-015 or WZ4003 both in the upper and lower wells. Non-invaded cells were removed from the upper face of the filters by scraping, and cells that had migrated to the lower face of the filters were fixed and stained with Reastain Quick-Diff kit (Reagena) and images (×10 magnification) were captured. For cell invasion assays, statistical significance was assessed using GraphPad Prism 5.0.

CK1γ 2 = CK1γ 2 (Homo sapiens, UniProt P78368); experiment: Kinase profiling; type: biochemical; details: 0.1 or 1 μM inhibitor; mean of triplicate
Outline: (§2)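 140-kinase in vitro panel; compound 0.1 or 1 μM; triplicate reactions. Output given as remaining activity (% of DMSO control) ±S.D.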

EPH-B3 = EPH-B3 (Homo sapiens, UniProt P54753); experiment: Kinase profiling; type: biochemical; details: 0.1 or 1 μM inhibitor; mean of triplicate
Outline: as §2

LKB1 = LKB1 (Homo sapiens, UniProt Q15831); experiment: Kinase profiling; type: biochemical; details: 0.1 or 1 μM inhibitor; mean of triplicate
LKB1, sequence (Q15831 whole entry): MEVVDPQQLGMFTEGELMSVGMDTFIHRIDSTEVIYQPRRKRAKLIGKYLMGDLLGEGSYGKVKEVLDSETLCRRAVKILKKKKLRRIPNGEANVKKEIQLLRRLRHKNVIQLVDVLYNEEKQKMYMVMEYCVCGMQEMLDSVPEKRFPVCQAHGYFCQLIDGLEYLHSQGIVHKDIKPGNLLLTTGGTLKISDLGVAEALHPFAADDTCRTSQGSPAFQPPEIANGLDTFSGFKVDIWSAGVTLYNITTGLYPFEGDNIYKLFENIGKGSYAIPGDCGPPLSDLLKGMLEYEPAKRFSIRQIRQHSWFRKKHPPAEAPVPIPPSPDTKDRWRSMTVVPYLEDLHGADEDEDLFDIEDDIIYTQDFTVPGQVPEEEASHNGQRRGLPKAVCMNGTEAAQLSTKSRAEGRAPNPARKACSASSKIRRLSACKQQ
LKB1, sequence (Q7RTN6 whole entry partner): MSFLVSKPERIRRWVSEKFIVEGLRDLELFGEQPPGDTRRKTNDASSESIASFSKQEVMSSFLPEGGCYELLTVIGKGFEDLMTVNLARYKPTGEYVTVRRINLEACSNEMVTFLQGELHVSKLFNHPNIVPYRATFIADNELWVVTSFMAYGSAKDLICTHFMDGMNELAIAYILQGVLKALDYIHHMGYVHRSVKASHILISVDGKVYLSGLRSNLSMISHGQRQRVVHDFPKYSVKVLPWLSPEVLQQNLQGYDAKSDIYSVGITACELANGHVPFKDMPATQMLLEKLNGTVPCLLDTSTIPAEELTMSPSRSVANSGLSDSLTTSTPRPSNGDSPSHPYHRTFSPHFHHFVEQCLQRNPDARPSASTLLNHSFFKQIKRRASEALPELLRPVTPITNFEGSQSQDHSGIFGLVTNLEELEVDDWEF
LKB1, sequence (Q9Y376 whole entry partner): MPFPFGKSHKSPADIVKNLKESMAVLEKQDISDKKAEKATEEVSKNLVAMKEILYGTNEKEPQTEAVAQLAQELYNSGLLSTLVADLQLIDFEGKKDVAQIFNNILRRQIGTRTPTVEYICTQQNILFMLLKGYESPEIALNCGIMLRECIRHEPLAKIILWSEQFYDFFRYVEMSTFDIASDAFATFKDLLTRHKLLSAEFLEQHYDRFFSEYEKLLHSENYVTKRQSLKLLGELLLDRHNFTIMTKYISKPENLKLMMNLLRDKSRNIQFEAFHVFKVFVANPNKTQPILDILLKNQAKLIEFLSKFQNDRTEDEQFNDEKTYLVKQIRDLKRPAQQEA
Outline: as §2

NEK2α = NEK2α (Homo sapiens, UniProt P51955); experiment: Kinase profiling; type: biochemical; details: 0.1 or 1 μM inhibitor; mean of triplicate
Outline: as §2

PDK1 = PDK1 (Homo sapiens, UniProt O15530); experiment: Kinase profiling; type: biochemical; details: 0.1 or 1 μM inhibitor; mean of triplicate
Outline: as §2

SIK3 = SIK3 (Homo sapiens, UniProt Q9Y2K2); experiment: Kinase profiling; type: biochemical; details: 0.1 or 1 μM inhibitor; mean of triplicate
SIK3, sequence (Q9Y2K2 whole entry): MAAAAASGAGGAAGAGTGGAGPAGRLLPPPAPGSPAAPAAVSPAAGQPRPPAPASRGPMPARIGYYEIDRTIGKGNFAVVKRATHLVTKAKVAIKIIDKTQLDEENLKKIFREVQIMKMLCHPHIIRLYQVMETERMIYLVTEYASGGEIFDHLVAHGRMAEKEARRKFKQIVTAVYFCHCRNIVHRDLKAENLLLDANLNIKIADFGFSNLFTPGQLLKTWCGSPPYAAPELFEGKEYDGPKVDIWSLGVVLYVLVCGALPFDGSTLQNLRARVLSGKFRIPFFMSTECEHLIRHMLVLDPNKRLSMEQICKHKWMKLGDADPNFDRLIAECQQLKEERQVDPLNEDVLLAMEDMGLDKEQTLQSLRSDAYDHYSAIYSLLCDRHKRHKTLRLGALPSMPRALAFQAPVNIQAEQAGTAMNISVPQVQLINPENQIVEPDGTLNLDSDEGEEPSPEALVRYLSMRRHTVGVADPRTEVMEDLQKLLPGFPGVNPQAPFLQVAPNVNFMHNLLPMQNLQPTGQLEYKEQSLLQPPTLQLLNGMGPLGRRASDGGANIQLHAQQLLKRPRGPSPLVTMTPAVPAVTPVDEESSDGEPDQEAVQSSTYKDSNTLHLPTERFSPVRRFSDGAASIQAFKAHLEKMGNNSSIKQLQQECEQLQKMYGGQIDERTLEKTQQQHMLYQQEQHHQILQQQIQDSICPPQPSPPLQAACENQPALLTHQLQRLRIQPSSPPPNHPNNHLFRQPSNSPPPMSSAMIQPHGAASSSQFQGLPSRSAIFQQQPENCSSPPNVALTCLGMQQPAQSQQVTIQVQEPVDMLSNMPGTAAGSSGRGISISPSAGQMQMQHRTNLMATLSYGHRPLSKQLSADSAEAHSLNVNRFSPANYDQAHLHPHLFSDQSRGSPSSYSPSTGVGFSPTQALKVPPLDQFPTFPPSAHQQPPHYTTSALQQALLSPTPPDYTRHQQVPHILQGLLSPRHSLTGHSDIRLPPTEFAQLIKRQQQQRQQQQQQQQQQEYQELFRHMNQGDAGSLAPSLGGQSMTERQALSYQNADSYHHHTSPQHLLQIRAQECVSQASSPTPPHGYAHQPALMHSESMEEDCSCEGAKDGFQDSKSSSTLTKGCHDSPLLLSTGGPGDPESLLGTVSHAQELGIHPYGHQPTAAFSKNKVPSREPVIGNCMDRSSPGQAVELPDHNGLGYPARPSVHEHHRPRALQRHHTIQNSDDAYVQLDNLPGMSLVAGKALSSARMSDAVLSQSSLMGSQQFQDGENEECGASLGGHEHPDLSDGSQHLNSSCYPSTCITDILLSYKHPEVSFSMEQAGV
Outline: as §2

TIE2 = TIE2 (Homo sapiens, UniProt Q02763); experiment: Kinase profiling; type: biochemical; details: 0.1 or 1 μM inhibitor; mean of triplicate
TIE2, sequence (Q02763 23-1124): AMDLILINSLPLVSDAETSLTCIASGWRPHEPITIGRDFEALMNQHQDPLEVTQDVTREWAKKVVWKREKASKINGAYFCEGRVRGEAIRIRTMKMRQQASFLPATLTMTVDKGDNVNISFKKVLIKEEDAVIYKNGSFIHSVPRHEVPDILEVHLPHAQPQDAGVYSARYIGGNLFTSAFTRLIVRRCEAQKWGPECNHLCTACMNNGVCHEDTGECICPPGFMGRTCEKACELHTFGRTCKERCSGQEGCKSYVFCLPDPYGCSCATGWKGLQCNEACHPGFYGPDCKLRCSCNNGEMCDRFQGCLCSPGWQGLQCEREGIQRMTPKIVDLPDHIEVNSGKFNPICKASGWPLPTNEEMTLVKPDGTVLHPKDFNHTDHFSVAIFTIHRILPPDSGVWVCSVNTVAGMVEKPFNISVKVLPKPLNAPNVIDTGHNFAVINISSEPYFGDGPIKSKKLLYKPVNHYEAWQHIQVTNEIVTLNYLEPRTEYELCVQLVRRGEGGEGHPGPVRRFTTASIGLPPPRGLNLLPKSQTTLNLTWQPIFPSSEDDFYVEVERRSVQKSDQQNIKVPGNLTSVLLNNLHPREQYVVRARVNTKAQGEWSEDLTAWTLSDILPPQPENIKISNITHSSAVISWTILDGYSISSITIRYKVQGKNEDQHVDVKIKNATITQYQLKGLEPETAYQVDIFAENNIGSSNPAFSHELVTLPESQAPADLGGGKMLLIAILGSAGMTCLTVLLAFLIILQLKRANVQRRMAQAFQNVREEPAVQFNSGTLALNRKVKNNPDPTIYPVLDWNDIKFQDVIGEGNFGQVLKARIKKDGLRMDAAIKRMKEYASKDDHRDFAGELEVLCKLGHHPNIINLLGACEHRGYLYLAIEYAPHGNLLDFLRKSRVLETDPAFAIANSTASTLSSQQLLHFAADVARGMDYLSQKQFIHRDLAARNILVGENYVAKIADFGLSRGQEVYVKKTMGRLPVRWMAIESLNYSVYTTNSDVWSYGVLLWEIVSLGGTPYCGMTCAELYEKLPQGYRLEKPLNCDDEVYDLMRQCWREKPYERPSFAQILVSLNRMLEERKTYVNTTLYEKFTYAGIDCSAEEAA

ULK1 = ULK1 (Homo sapiens, UniProt O75385); experiment: Kinase profiling; type: biochemical; details: 0.1 or 1 μM inhibitor; mean of triplicate
ULK1, sequence (O75385 whole entry): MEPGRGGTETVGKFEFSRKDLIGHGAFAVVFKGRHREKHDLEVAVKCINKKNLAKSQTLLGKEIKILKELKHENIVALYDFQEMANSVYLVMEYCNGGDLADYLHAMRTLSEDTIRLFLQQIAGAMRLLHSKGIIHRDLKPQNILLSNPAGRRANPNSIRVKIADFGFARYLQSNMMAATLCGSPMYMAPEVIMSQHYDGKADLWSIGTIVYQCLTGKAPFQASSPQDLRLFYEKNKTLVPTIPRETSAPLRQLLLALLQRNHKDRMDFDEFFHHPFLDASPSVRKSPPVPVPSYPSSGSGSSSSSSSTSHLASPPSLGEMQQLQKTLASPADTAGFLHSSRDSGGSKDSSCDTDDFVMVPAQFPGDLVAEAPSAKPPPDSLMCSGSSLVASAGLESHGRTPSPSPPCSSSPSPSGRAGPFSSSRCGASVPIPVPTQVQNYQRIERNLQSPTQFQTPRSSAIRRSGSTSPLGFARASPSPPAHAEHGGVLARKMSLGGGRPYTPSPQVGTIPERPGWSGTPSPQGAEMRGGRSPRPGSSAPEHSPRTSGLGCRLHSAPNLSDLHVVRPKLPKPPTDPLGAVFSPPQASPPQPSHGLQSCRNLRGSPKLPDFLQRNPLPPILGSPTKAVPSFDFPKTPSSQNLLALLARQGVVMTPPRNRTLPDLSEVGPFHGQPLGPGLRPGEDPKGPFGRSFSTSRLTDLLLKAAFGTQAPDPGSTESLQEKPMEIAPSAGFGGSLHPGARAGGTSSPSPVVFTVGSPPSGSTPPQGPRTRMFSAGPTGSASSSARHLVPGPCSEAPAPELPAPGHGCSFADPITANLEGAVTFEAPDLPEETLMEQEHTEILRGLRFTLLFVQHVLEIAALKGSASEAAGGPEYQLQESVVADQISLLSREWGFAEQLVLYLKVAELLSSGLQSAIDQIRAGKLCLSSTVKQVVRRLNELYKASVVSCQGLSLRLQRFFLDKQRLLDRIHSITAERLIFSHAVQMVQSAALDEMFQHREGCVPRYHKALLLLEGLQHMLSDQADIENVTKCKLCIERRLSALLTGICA
Outline: as §2

EF2K = EF2K (Homo sapiens, UniProt O00418); experiment: Kinase profiling; type: biochemical; details: 0.1 or 1 μM inhibitor; mean of triplicate
PAK4 = PAK4 (Homo sapiens, UniProt O96013); experiment: Kinase profiling; type: biochemical; details: 0.1 or 1 μM inhibitor; mean of triplicate
p38δ MAPK = p38δ MAPK (Homo sapiens, UniProt O15264); experiment: Kinase profiling; type: biochemical; details: 0.1 or 1 μM inhibitor; mean of triplicate
p38δ MAPK, sequence (O15264 whole entry): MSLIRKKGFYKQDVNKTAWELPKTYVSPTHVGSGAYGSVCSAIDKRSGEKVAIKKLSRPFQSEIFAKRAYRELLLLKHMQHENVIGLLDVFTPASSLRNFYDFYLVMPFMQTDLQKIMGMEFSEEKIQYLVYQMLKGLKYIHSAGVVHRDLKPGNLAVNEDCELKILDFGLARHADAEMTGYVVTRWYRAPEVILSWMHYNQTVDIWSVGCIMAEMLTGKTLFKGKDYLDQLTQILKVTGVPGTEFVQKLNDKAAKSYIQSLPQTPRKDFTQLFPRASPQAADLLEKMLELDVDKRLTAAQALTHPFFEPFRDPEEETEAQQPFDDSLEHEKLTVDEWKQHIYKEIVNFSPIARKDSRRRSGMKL
Outline: as §2

PINK = PINK (Tribolium castaneum, UniProt D6WMX4); experiment: Kinase profiling; type: biochemical, insect; details: 0.1 or 1 μM inhibitor; mean of triplicate
Method: Kinase inhibitor specificity profiling assays were carried out at The International Centre for Protein Kinase Profiling (http://www.kinase-screen.mrc.ac.uk/) against a panel of 140 protein kinases as described previously. Results are presented as a percentage of kinase activity in DMSO control reactions. Protein kinases were assayed in vitro with 0.1 or 1 μM of the inhibitors and the results are presented as an average of triplicate reactions±S.D. or in the form of comparative histograms.

SMILES	Inhibition of ACC Ser79 phosphorylation induced by cell detachment (in words) [1]	Block of MYPT1 Ser445 phosphorylation (in words) [2]	Invasiveness of U2OS cells (in words) (U2OS cells)	CK1γ 2 activity, percentage of DMSO control (CK1γ 2) [percentage]	EPH-B3 activity, percentage of DMSO control (EPH-B3) [percentage]	LKB1 activity, percentage of DMSO control (LKB1) [percentage]	NEK2α activity, percentage of DMSO control (NEK2α) [percentage]	PDK1 activity, percentage of DMSO control (PDK1) [percentage]	SIK3 activity, percentage of DMSO control (SIK3) [percentage]	TIE2 activity, percentage of DMSO control (TIE2) [percentage]	ULK1 activity, percentage of DMSO control (ULK1) [percentage]	EF2K activity, percentage of DMSO control (EF2K) [percentage]	PAK4 activity, percentage of DMSO control (PAK4) [percentage]	p38δ MAPK activity, percentage of DMSO control (p38δ MAPK) [percentage]	PINK activity, percentage of DMSO control (PINK) [percentage]
CCC(=O)Nc1cccc(Oc2nc(Nc3ccc(N4CCN(C)CC4)cc3OC)ncc2Cl)c1 [WZ4003]	neither compound inhibited	failed to block	markedly inhibited the invasiveness	102	113	87	110	104	102	94	52	–	–	–	–
Cc1nc(Nc2cnn(C3CCNCC3)c2)nc2c1N(C)C(=O)c1cc3ccccc3cc1N2C [HTH-01-015]	neither compound inhibited	failed to block	markedly inhibited the invasiveness	109	120	98	103	102	109	84	132	103	110	113	99
